Assay [1] concerns NIH3T3. Nature of the assay: Survival effect on NGF-dependent mouse NIH/3T3 cells expressing TrkA assessed as cell viability after 2 days by MTT assay. The class given is functional. The note with it: NIH3T3, 48 h, read-out: ED50 (the source's name). Background: Formazan colour is commonly taken as a measure of viable cells.
Assay [2] relates to NIH3T3. Nature of the assay: Survival effect on NGF-dependent mouse NIH/3T3 cells expressing TrkB assessed as cell viability after 2 days by MTT assay. Format: functional. The note with it: NIH3T3, 48 h, read-out: ED50 (the source's name).

In brackets after ≈: the same amount, converted by molar mass. Where only a bound is given, the exact number is not on record here.

Regarding `C=C1[C@H](OC(C)=O)[C@@H](OC(=O)c2ccccc2)[C@@H](OC(=O)c2cccnc2)C(C)(C)[C@H]2O[C@](O)([C@H](C)C2=O)[C@@]2(OC(C)=O)C[C@H](C)[C@H](OC(C)=O)[C@@H]2[C@H]1OC(C)=O` [KANSUININ D], the EC50 with NIH3T3 [1] came to 0.55 µg/mL (≈ 0.693 µM); in the assay on NIH3T3 [2], 0.22 µg/mL (≈ 0.277 µM).

As to `C=C1[C@H](OC(C)=O)[C@@H](OC(=O)c2ccccc2)[C@@H](OC(=O)c2ccccc2)C(C)(C)[C@H]2O[C@@H]2[C@@H](C)C(=O)[C@@]2(OC(C)=O)C[C@H](C)[C@H](OC(C)=O)[C@@H]2[C@H]1OC(C)=O` [KANSUININ F], the EC50 in the assay with NIH3T3 [1] and with NIH3T3 [2] was above 50 µg/mL throughout.

For `C=C1[C@H](OC(C)=O)[C@@H](OC(=O)c2ccccc2)[C@@H](OC(=O)c2cccnc2)C(C)(C)[C@H]2O[C@@H]2[C@@H](C)C(=O)[C@@]2(OC(C)=O)C[C@H](C)[C@H](OC(C)=O)[C@@H]2[C@H]1OC(C)=O` [KANSUININ E], the EC50 in the assay with NIH3T3 [1] was 0.23 µg/mL (≈ 0.296 µM); with NIH3T3 [2], above 50 µg/mL.

For `C=C1[C@H](OC(C)=O)[C@@H](OC(=O)c2ccccc2)[C@@H](OC(C)=O)C(C)(C)[C@H]2O[C@](O)([C@H](C)C2=O)[C@@]2(OC(C)=O)C[C@H](C)[C@H](OC(C)=O)[C@@H]2[C@H]1OC(C)=O` [KANSUININ A], the EC50 with NIH3T3 [1] stood at 7.92 µg/mL (≈ 10.8 µM); with NIH3T3 [2], 3.28 µg/mL (≈ 4.49 µM).

Source of the values: ChEMBL document CHEMBL1148899, “Activity of macrocyclic jatrophane diterpenes from Euphorbia kansui in a TrkA fibroblast survival assay” (2004).
